Results taken from US9635853B2, “Insecticidal compounds” (Syngenta Participations AG, priority 2013, dated 2017).

Experiments:
Assay type in all cases: in vivo
[1] = tested on: Spodoptera littoralis; test: Spodoptera littoralis (Egyptian cotton leafworm) leaf disc test; settings: foliar, 72 h, 200 ppm sprayed on cotton leaf discs, L1 larvae, mortality, feeding behavior, growth regulation 3 DAT
From the text: Spodoptera littoralis (Egyptian cotton leafworm): Cotton leaf discs were placed on agar in a 24-well microtiter plate and sprayed with test solutions at an application rate of 200 ppm. After drying, the leaf discs were infested with 5 L1 larvae. The samples were checked for mortality, feeding behavior, and growth regulation 3 days after treatment (DAT).

[2] = tested on: Heliothis virescens; test: Heliothis virescens (Tobacco budworm) egg/artificial diet test; settings: 96 h, 200 ppm (concentration in well 18 ppm), eggs on artificial diet, 4 days, egg mortality, larval mortality, growth regulation
Method: Heliothis virescens (Tobacco budworm): Eggs (0-24 h old) were placed in 24-well microtiter plate on artificial diet and treated with test solutions at an application rate of 200 ppm (concentration in well 18 ppm) by pipetting. After an incubation period of 4 days, samples were checked for egg mortality, larval mortality, and growth regulation.

[3] = tested on: Plutella xylostella; test: Plutella xylostella (Diamond back moth) artificial diet test; settings: 144 h, 200 ppm (concentration in well 18 ppm), L2 larvae, 6 days, larval mortality and growth regulation
Method: Plutella xylostella (Diamond back moth): 24-well microtiter plate (MTP) with artificial diet was treated with test solutions at an application rate of 200 ppm (concentration in well 18 ppm) by pipetting. After drying, the MTP's were infested with L2 larvae (7-12 per well). After an incubation period of 6 days, samples were checked for larval mortality and growth regulation.

[4] = tested on: Diabrotica balteata; test: Diabrotica balteata (Corn root worm) artificial diet test; settings: 120 h, 200 ppm (concentration in well 18 ppm), L2 larvae, 5 days, larval mortality and growth regulation
Method: Diabrotica balteata (Corn root worm): A 24-well microtiter plate (MTP) with artificial diet was treated with test solutions at an application rate of 200 ppm (concentration in well 18 ppm) by pipetting. After drying, the MTP's were infested with L2 larvae (6-10 per well). After an incubation period of 5 days, samples were checked for larval mortality and growth regulation.

[5] = tested on: Thrips tabaci; test: Thrips tabaci (Onion thrips) leaf disc test; settings: foliar, 168 h, 200 ppm sprayed on sunflower leaf discs, population of mixed ages, 7 days, mortality
Method: Thrips tabaci (Onion thrips): Sunflower leaf discs were placed on agar in a 24-well microtiter plate and sprayed with test solutions at an application rate of 200 ppm. […] After an incubation period of 7 days, samples were checked for mortality.

[6] = tested on: Tetranychus urticae; test: Tetranychus urticae (Two-spotted spider mite) leaf disc test; settings: foliar, 192 h, 200 ppm sprayed on bean leaf discs, mite populations of mixed ages, 8 days, egg, larval and adult mortality
From the text: Tetranychus urticae (Two-spotted spider mite): Bean leaf discs on agar in 24-well microtiter plates were sprayed with test solutions at an application rate of 200 ppm. After drying, the leaf discs are infested with mite populations of mixed ages. 8 days later, discs are checked for egg mortality, larval mortality, and adult mortality.

[7] = tested on: Myzus persicae; test: Myzus persicae (Green peach aphid) leaf disc test; settings: foliar, 144 h, 200 ppm sprayed on sunflower leaf discs, aphid population of mixed ages, 6 DAT, mortality
Method: Myzus persicae (Green peach aphid): Sunflower leaf discs were placed on agar in a 24-well microtiter plate and sprayed with test solutions at an application rate of 200 ppm. After drying, the leaf discs were infested with an aphid population of mixed ages. After an incubation period of 6 DAT, samples were checked for mortality.

Measured: pest or weed control at 200 ppm

CCN(C(=O)c1ccncc1)c1cccc(C(=O)Nc2c(Cl)cc(C(F)(C(F)(F)F)C(F)(F)F)cc2Br)c1F [Compound 1, N′-[3-[[2-bromo-6-chloro-4-[1,1,1,2,3,3,3-heptafluoro-prop-2-yl]phenyl]carbamoyl]-2-fluoro-phenyl]-N-ethyl-pyridine-4-carboxamide]
≥ 80%: all assays above

CCN(C(=O)c1cc[n+]([O-])cc1)c1cccc(C(=O)Nc2c(Cl)cc(C(F)(C(F)(F)F)C(F)(F)F)cc2Br)c1F [Compound 2, N′-[3-[[2-bromo-6-chloro-4-[1,1,1,2,3,3,3-heptafluoro-prop-2-yl]phenyl]carbamoyl]-2-fluoro-phenyl]-N-ethyl-1-oxido-pyridin-1-ium-4-carboxamide]
≥ 80%: all assays above

CN(C(=O)c1ccncc1)c1cccc(C(=O)Nc2c(Cl)cc(C(F)(C(F)(F)F)C(F)(F)F)cc2Br)c1F [Compound 3]
not listed: [2]
≥ 80%: all other assays above

CCc1cc(C(F)(C(F)(F)F)C(F)(F)F)cc(CC)c1NC(=O)c1cccc(N(CC)C(=O)c2ccncc2)c1F [Compound 4]
not listed: [2]
≥ 80%: all other assays above

CCc1cc(C(F)(C(F)(F)F)C(F)(F)F)cc(CC)c1NC(=O)c1cccc(N(CC)C(=O)c2cc[n+]([O-])cc2)c1F [Compound 5]
not listed: [1] | [2]
≥ 80%: all other assays above

CCN(C(=O)c1ccncc1)c1cccc(C(=O)Nc2c(Br)cc(C(F)(C(F)(F)F)C(F)(F)F)cc2Br)c1F [Compound 6]
≥ 80%: all assays above

CCN(C(=O)c1ccncc1)c1cccc(C(=O)Nc2c(Br)cc(C(F)(C(F)(F)F)C(F)(F)F)cc2OC(F)F)c1F [Compound 7]
≥ 80%: all assays above

CN(C(=O)c1ccncc1)c1cccc(C(=O)Nc2c(Br)cc(C(F)(C(F)(F)F)C(F)(F)F)cc2Br)c1F [Compound 8]
≥ 80%: all assays above

CN(C(=O)c1cc[n+]([O-])cc1)c1cccc(C(=O)Nc2c(Br)cc(C(F)(C(F)(F)F)C(F)(F)F)cc2Br)c1F [Compound 9]
≥ 80%: all assays above

CN(C(=O)c1ccncc1)c1cccc(C(=O)Nc2c(Cl)cc(C(F)(C(F)(F)F)C(F)(F)F)cc2Cl)c1F [Compound 10]
≥ 80%: all assays above

CCN(C(=O)c1ccncc1)c1cccc(C(=O)Nc2c(Cl)cc(C(F)(C(F)(F)F)C(F)(F)F)cc2Cl)c1F [Compound 11]
≥ 80%: all assays above

Cc1cc(C(F)(C(F)(F)F)C(F)(F)F)cc(Cl)c1NC(=O)c1cccc(N(C)C(=O)c2ccncc2)c1F [Compound 12]
≥ 80%: all assays above

CCc1cc(C(F)(C(F)(F)F)C(F)(F)F)cc(Cl)c1NC(=O)c1cccc(N(CC)C(=O)c2ccncc2)c1F [Compound 13]
≥ 80%: all assays above

CCN(C(=O)c1ccncc1)c1cccc(C(=O)Nc2c(C)cc(C(F)(C(F)(F)F)C(F)(F)F)cc2Cl)c1F [Compound 14]
≥ 80%: all assays above

CCN(C(=O)c1ccncc1)c1cccc(C(=O)Nc2c(Cl)cc(C(F)(C(F)(F)F)C(F)(F)F)cc2OC(F)F)c1F [Compound 18]
not listed: [2]
≥ 80%: all other assays above

CCN(C(=O)c1ccncc1)c1cccc(C(=O)Nc2c(C)cc(C(F)(C(F)(F)F)C(F)(F)F)cc2OC(F)F)c1F [Compound 19]
not listed: [2]
≥ 80%: all other assays above
